What was measured:
[1] = Moisture sorption/desorption analysis for hygroscopicity; type: physicochemical; conditions: for initial weight loss upon equilibration: at 5% RH; for total weight gain: at 95% RH; for hygroscopicity: moisture sorption/desorption behavior
Description: This weight was gradually regained by approximately 75% RH with a total weight gain of approximately 0.64% at 95% RH. Slightly more weight was lost during desorption with litle hysterisis.
The moisture sorption/desorption profiles of Compound 2 hydrochloride, Compound 2 acetate, and compound 2 adipate are presented in Table 7. […] Relative humidity was then increased and weight measurements taken at regular intervals. Change is given as percent of original sample.

[2] = tested on: LPS Induced iNOS; conditions: rat; cited from earlier work
[3] = target: T1, hiNOS (Homo sapiens, UniProt P35228); conditions: DAN assay, HEK293 cells transfected with NOS isoform; cited from earlier work
T1 construct: expressed in transfected cells; host or cells: HEK293

[4] = target: T2, hnNOS (Homo sapiens, UniProt P29475); conditions: DAN assay, HEK293 cells transfected with NOS isoform; cited from earlier work
T2 construct: expressed in transfected cells; host or cells: HEK293
T2 sequence (P29475 whole entry, canonical isoform): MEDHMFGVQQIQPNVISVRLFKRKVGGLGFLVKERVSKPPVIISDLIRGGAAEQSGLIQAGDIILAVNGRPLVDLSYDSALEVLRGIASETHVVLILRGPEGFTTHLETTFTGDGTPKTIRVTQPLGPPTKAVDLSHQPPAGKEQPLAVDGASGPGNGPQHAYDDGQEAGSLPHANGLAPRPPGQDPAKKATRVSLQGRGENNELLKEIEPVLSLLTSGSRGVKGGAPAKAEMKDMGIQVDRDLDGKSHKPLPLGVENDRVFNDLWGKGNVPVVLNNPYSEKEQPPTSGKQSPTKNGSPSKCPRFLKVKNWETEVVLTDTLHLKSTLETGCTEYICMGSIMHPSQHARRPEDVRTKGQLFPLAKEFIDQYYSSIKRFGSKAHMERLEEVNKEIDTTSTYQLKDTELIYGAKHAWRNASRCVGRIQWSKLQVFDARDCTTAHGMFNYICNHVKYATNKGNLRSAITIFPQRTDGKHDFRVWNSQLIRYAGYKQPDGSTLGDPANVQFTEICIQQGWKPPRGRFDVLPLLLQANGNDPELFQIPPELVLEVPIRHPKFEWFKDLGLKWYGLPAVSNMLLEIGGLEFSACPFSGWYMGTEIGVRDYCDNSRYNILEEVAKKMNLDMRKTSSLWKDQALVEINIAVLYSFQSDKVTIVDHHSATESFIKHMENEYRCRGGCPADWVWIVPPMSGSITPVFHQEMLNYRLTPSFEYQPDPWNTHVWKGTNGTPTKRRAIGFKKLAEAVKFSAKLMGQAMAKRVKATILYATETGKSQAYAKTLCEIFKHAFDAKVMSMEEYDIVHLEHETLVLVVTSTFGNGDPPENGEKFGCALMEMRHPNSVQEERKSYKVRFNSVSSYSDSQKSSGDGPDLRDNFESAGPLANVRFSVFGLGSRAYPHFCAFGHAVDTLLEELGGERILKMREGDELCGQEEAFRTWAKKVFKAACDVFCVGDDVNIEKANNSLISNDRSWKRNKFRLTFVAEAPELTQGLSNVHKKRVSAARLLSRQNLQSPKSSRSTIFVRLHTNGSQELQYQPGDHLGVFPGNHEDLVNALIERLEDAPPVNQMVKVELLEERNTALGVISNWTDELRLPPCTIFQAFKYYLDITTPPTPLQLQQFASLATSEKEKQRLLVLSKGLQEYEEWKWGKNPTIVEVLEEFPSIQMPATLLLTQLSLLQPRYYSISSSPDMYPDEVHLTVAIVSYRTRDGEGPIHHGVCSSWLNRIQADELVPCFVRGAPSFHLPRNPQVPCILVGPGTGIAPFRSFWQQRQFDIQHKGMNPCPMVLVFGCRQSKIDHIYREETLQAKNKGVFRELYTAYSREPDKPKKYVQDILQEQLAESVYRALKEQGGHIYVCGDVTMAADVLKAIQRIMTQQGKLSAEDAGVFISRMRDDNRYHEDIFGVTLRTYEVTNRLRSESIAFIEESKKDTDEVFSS

[5] = target: T3, heNOS (Homo sapiens, UniProt P29474); conditions: DAN assay, HEK293 cells transfected with NOS isoform; cited from earlier work
T3 construct: expressed in transfected cells; host or cells: HEK293
T3 sequence (P29474 2-1203 limits assumed): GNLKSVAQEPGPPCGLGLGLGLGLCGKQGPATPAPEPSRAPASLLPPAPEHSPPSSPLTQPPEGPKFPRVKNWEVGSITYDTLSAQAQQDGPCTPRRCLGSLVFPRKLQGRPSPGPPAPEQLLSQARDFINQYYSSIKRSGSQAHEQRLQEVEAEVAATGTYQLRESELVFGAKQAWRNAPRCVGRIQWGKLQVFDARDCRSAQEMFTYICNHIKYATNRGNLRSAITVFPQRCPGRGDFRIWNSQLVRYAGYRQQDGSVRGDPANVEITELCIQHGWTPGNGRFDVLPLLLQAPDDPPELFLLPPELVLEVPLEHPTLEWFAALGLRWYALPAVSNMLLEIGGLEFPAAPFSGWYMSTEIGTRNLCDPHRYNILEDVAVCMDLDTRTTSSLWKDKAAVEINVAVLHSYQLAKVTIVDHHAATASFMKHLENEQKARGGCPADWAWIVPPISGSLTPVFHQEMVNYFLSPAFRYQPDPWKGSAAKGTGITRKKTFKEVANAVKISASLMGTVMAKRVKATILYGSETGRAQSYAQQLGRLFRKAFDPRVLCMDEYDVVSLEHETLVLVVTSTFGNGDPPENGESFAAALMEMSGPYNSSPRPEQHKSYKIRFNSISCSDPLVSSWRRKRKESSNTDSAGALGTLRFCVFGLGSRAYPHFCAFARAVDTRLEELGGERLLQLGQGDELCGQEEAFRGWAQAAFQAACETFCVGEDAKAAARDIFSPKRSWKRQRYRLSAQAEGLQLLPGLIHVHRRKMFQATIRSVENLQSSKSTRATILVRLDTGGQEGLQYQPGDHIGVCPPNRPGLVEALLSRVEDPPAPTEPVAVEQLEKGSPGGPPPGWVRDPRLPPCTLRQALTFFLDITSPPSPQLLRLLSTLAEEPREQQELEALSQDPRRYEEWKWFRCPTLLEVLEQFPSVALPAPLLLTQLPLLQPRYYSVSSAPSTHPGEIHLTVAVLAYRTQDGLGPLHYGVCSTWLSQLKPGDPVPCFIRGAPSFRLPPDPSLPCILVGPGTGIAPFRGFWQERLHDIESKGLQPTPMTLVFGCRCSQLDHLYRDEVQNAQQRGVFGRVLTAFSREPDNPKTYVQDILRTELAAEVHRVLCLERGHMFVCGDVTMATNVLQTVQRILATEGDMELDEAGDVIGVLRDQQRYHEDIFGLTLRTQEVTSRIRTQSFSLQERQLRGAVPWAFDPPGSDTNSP

[6] = Solubility in selected solvents; type: physicochemical; conditions: thermodynamic from solid
Procedure: The solubility of Compound 2 acetate was investigated with regard to potential process and formulation solvents. The solubility of Compound 2 acetate was evaluated by preparing saturated solution of Compound 2 in the selected solvents, filtering the samples (0.22 μm), diluting, and determining concentration by external standard HPLC using a rapid analysis assay.

Row | Compound | Weight % Change, Adsorption ([1]; 5 Percent Relative Humidity) | Weight % Change, Desorption ([1]; 5 Percent Relative Humidity) | Weight % Change, Adsorption ([1]; 15 Percent Relative Humidity) | Weight % Change, Desorption ([1]; 15 Percent Relative Humidity) | Weight % Change, Adsorption ([1]; 25 Percent Relative Humidity) | Weight % Change, Desorption ([1]; 25 Percent Relative Humidity) | Weight % Change, Adsorption ([1]; 35 Percent Relative Humidity) | Weight % Change, Desorption ([1]; 35 Percent Relative Humidity) | Weight % Change, Adsorption ([1]; 45 Percent Relative Humidity) | Weight % Change, Desorption ([1]; 45 Percent Relative Humidity) | Weight % Change, Adsorption ([1]; 55 Percent Relative Humidity) | Weight % Change, Desorption ([1]; 55 Percent Relative Humidity) | Weight % Change, Adsorption ([1]; 65 Percent Relative Humidity) | Weight % Change, Desorption ([1]; 65 Percent Relative Humidity) | Weight % Change, Adsorption ([1]; 75 Percent Relative Humidity) | Weight % Change, Desorption ([1]; 75 Percent Relative Humidity) | Weight % Change, Adsorption ([1]; 85 Percent Relative Humidity) | Weight % Change, Desorption ([1]; 85 Percent Relative Humidity) | Weight % Change, Adsorption ([1]; 95 Percent Relative Humidity) | hygroscopicity [1] | other results
1 | CN(CCCNCc1ccc2c(c1)OCO2)c1nc(-n2ccnc2)ns1.Cl [Compound 2 hydrochloride, N′-Benzo[1,3]dioxol-5-ylmethyl-N-(3-imidazol-1-yl-[1,2,4]thiadiazol-5-yl)-N-methyl-propane-1,3-diamine hydrochloride salt] | <−1% | <−2% | <−1% | <−1% | <−1% | <−1% | <−1% | <−1% | <−1% | <−1% | <−1% | <0% | <0% | <0% | <0% | <1% | <1% | <2% | <5% | not hygroscopic | Weight % Change, Desorption ([1]; 95 Percent Relative Humidity): <5%; initial weight loss upon equilibration [1]: < 1%; total weight gain [1]: < 5%
2 | CN(CCCNCc1ccc2c(c1)OCO2)c1nc(-n2ccnc2)ns1 [Compound 2, N′-Benzo[1,3]dioxol-5-ylmethyl-N-(3-imidazol-1-yl-[1,2,4]thiadiazol-5-yl)-N-methyl-propane-1,3-diamine] |  |  |  |  |  |  |  |  |  |  |  |  |  |  |  |  |  |  |  | not hygroscopic | initial weight loss upon equilibration [1]: approximately 0.16%; total weight gain [1]: approximately 0.64%; LPS Induced iNOS In Vivo, ED50 [2]: + ((+), ED50 <10); EC50 [3]: < 1 µM; EC50 [4]: > 1 µM; EC50 [5]: > 10 µM
3 | CN(CCCNCc1ccc2c(c1)OCO2)c1nc(-n2ccnc2)ns1.O=C(O)CCCCC(=O)O [Compound 2 adipate, N′-Benzo[1,3]dioxol-5-ylmethyl-N-(3-imidazol-1-yl-[1,2,4]thiadiazol-5-yl)-N-methyl-propane-1,3-diamine adipate salt] | <0% | <0% | <0% | <0% | <0% | <0% | <0% | <0% | <1% | <1% | <1% | <1% | <1% | <1% | <2% | <2% | <3% | <3% | >6% | hygroscopic, especially at elevated humidities | Weight % Change, Desorption ([1]; 95 Percent Relative Humidity): >6%; initial weight loss upon equilibration [1]: less than 1%; total weight gain [1]: over 6%
4 | CC(=O)O.CN(CCCNCc1ccc2c(c1)OCO2)c1nc(-n2ccnc2)ns1 [Compound 2 acetate, N′-Benzo[1,3]dioxol-5-ylmethyl-N-(3-imidazol-1-yl-[1,2,4]thiadiazol-5-yl)-N-methyl-propane-1,3-diamine acetate salt] | <1% | <1% | <1% | <1% | <1% | <1% | <1% | <1% | <1% | <1% | <1% | <1% | <1% | <1% | <1% | <1% | <3% | <3% | <5% | significantly hygroscopic at high RH | Weight % Change, Desorption ([1]; 95 Percent Relative Humidity): <5%; weight gain ([1]; over the range of 5 to 85% relative humidity (RH)): minimal weight gain; solubility ([6]; acetonitrile, organic solvent or mixture): 2.1 mg/mL; solubility ([6]; dichloromethane, organic solvent or mixture): 10 mg/mL; solubility ([6]; ethanol, organic solvent or mixture): 8.5 mg/mL; solubility ([6]; ethyl acetate, organic solvent or mixture): 2 mg/mL; solubility ([6]; hexanes, organic solvent or mixture): 0.003 mg/mL; solubility ([6]; isopropanol, organic solvent or mixture): 3.7 mg/mL; solubility ([6]; methanol, organic solvent or mixture): 58.3 mg/mL; solubility ([6]; propylene glycol, organic solvent or mixture): 36.7 mg/mL; solubility ([6]; water): 44.6 mg/mL; solubility ([6]; water:ethanol:propylene glycol (40:40:20), aqueous with cosolvent or surfactant or cyclodextrin): 101 mg/mL
5 | Benzo[1,3]dioxol-5-ylmethyl-{2-[2-(2-imidazol-1-yl-6-methyl-pyrimidin-4-yl)-pyrrolidin-1-yl]-ethyl}-amine [Compound 1] |  |  |  |  |  |  |  |  |  |  |  |  |  |  |  |  |  |  |  |  | LPS Induced iNOS In Vivo, ED50 [2]: + ((+), ED50 <10); EC50 [3]: < 1 µM; EC50 [4]: > 1 µM; EC50 [5]: > 10 µM
